Some targets named below: Ephrin type-A receptor 7 (Homo sapiens, UniProt Q15375); Insulin receptor (Homo sapiens, UniProt P06213); Ephrin type-A receptor 2 (Homo sapiens, UniProt P29317).
Assay [1] deals with Dual specificity mitogen-activated protein kinase kinase 2 (Homo sapiens, UniProt P36507).
In assay [2] the target is Chromodomain-helicase-DNA-binding protein 4 (Homo sapiens, UniProt Q14839).
Assay [3] has as its target T1, Serine/threonine-protein kinase TAO1 (Homo sapiens, UniProt Q7L7X3).
T1 sequence (Q7L7X3 whole entry): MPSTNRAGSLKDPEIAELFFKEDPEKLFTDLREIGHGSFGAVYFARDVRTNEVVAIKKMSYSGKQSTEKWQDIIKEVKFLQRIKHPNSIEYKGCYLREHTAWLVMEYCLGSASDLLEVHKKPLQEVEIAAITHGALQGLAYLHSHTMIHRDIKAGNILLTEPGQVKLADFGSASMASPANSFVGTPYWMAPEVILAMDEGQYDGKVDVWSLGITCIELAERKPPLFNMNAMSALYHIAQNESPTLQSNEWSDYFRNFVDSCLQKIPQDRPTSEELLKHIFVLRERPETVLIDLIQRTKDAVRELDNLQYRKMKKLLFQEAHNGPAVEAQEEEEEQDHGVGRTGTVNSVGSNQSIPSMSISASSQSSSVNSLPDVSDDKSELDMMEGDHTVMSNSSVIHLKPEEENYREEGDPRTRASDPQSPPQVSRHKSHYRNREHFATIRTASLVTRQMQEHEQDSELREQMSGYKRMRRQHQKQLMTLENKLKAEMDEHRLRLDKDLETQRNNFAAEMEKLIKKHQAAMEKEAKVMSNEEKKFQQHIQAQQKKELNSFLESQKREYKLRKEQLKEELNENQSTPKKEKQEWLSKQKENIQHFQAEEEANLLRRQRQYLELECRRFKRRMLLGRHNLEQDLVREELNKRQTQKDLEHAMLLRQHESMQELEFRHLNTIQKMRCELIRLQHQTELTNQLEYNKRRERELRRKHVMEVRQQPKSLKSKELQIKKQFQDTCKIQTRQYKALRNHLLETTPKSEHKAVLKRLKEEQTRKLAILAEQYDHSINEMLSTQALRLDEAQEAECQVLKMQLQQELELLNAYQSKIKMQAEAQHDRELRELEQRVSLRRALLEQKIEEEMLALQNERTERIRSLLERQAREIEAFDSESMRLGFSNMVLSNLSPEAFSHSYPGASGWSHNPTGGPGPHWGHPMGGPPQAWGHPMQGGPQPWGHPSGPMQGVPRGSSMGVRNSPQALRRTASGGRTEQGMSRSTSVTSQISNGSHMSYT

Assay [4] deals with MAP/microtubule affinity-regulating kinase 3 (Homo sapiens, UniProt P27448).
Assay [5] addresses T2, NUAK family SNF1-like kinase 2 (Homo sapiens, UniProt Q9H093).
T2 sequence (Q9H093 whole entry): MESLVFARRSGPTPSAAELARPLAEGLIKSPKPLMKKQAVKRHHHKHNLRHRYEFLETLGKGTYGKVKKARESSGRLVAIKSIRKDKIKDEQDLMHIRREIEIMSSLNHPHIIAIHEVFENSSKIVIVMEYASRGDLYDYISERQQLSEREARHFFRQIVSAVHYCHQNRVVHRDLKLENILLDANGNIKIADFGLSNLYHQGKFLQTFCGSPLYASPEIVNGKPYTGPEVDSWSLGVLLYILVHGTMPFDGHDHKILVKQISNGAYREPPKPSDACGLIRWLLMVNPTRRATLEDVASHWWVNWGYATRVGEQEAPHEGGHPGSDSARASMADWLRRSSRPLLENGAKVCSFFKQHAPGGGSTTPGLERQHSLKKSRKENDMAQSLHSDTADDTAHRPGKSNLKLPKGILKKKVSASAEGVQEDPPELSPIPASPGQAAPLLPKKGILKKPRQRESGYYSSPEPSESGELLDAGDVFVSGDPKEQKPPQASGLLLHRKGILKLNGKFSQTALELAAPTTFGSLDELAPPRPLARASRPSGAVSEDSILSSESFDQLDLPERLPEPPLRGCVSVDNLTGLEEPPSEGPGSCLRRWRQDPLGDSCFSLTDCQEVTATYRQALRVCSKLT

In assay [6] the target is T3, RNA cytidine acetyltransferase (Homo sapiens, UniProt Q9H0A0).
T3 sequence (Q9H0A0 whole entry): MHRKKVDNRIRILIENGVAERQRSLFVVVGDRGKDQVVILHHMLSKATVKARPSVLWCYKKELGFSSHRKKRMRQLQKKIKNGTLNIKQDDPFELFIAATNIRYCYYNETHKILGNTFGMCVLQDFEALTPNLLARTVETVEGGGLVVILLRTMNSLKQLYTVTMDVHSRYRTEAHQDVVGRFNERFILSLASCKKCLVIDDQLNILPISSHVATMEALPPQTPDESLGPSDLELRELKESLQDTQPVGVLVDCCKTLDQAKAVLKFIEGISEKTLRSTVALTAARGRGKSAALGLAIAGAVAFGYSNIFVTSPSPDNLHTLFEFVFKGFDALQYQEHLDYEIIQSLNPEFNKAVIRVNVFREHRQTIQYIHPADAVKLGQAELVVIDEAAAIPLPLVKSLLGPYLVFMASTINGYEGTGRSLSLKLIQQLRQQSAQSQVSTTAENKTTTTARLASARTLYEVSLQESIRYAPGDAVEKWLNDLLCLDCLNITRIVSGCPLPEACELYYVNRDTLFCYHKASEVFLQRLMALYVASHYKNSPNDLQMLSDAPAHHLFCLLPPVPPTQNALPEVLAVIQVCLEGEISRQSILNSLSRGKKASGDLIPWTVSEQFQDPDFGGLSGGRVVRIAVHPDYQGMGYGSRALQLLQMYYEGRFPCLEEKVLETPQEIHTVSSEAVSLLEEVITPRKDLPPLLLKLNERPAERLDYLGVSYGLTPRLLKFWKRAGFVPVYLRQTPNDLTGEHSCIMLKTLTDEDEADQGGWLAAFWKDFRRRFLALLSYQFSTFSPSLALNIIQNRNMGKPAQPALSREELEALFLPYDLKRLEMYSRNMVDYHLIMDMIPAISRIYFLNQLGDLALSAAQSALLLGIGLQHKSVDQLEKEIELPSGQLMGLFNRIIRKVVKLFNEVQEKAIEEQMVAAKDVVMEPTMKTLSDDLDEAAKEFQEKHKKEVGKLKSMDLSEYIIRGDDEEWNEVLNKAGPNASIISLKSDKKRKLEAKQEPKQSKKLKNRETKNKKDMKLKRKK

Assay [7] concerns the target Serine/threonine-protein kinase 26 (Homo sapiens, UniProt Q9P289).

Activity calls are given as the source filed them. For most assays here, no stated cut-off is given here; in the data, actives have a measured Kd and inactives only a lower limit.

Chain of Insulin receptor (P06213 28-758 limits assumed): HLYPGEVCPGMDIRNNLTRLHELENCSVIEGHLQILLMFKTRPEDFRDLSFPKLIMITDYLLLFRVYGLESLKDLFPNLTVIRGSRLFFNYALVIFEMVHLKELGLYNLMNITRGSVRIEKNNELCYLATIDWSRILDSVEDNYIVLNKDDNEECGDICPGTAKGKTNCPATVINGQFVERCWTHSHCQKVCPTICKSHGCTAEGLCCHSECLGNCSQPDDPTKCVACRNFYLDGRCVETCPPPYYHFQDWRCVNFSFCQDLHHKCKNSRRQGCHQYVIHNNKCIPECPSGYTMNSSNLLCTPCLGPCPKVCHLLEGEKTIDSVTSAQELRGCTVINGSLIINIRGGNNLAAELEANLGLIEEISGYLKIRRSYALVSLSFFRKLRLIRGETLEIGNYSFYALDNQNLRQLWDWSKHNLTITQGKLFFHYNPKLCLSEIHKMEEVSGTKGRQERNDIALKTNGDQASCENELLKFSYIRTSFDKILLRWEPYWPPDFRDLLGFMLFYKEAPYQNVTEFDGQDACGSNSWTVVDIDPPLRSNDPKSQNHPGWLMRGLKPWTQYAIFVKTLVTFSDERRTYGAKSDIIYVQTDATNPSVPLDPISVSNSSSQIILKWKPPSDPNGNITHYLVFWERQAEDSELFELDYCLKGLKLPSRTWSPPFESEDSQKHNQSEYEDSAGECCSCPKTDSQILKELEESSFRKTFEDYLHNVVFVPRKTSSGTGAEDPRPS
Chain of Insulin receptor (P06213 763-1382 limits assumed): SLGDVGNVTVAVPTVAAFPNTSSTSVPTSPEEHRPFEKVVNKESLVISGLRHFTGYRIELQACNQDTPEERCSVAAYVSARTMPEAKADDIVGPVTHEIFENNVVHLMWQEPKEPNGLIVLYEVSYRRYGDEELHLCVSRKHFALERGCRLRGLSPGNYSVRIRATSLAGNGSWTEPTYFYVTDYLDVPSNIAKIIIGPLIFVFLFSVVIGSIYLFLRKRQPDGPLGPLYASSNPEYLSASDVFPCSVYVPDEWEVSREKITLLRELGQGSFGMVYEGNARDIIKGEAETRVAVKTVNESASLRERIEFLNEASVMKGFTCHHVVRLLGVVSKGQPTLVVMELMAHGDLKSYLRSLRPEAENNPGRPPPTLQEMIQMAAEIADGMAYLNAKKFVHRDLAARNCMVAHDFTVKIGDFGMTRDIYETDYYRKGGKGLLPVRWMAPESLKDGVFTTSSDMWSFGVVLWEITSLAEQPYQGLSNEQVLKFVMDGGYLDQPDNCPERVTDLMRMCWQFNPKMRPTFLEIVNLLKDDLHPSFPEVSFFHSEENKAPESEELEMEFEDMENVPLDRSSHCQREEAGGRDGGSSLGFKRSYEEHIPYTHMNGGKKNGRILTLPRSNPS
Chain of Serine/threonine-protein kinase 26 (Q9P289 whole entry): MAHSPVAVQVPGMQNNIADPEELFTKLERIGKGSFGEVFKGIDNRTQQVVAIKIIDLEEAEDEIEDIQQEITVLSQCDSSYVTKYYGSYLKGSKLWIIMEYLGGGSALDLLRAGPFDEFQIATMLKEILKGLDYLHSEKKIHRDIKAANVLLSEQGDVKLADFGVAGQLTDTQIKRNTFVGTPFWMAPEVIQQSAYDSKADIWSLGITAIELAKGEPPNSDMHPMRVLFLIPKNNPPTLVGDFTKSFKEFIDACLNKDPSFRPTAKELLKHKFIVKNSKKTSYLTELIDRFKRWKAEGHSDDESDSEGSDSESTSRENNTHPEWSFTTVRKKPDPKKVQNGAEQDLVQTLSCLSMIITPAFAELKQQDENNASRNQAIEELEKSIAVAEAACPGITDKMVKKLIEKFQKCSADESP
Chain of Dual specificity mitogen-activated protein kinase kinase 2 (P36507 whole entry): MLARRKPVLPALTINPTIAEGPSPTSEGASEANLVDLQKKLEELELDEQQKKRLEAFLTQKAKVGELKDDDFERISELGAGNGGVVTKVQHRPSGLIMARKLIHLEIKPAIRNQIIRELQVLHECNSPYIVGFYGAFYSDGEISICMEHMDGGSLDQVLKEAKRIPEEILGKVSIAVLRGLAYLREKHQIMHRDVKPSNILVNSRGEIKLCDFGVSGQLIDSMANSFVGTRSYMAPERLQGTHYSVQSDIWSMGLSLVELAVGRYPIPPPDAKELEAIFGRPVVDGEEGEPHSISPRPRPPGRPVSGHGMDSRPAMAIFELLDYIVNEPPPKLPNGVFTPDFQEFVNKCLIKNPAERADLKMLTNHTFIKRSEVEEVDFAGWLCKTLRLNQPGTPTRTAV
Chain of Ephrin type-A receptor 7 (Q15375 whole entry): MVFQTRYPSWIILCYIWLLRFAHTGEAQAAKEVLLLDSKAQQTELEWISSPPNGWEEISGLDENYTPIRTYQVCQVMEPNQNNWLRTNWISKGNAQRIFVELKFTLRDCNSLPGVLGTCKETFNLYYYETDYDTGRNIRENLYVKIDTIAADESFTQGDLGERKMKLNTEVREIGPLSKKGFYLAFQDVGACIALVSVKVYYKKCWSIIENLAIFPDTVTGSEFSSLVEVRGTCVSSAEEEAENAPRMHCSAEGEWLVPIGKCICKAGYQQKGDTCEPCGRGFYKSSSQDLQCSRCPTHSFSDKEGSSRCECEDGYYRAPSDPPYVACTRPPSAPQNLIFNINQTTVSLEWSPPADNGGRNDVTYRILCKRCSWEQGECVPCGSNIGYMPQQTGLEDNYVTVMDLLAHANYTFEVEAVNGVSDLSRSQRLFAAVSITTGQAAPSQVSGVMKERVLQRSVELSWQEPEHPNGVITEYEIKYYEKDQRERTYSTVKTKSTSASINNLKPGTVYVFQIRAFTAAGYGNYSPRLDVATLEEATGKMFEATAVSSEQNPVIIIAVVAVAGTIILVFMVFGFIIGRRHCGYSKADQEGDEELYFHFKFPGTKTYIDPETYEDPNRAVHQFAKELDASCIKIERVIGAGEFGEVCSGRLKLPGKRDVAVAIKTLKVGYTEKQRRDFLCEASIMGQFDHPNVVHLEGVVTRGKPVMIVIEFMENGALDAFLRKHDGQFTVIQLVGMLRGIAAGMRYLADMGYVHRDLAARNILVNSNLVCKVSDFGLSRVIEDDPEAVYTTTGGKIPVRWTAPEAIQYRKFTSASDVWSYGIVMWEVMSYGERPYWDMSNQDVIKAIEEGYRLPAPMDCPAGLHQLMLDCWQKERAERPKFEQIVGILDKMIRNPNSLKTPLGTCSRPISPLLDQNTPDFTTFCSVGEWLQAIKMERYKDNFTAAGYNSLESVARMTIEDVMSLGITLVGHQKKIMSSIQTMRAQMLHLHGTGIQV
Chain of Ephrin type-A receptor 2 (P29317 whole entry): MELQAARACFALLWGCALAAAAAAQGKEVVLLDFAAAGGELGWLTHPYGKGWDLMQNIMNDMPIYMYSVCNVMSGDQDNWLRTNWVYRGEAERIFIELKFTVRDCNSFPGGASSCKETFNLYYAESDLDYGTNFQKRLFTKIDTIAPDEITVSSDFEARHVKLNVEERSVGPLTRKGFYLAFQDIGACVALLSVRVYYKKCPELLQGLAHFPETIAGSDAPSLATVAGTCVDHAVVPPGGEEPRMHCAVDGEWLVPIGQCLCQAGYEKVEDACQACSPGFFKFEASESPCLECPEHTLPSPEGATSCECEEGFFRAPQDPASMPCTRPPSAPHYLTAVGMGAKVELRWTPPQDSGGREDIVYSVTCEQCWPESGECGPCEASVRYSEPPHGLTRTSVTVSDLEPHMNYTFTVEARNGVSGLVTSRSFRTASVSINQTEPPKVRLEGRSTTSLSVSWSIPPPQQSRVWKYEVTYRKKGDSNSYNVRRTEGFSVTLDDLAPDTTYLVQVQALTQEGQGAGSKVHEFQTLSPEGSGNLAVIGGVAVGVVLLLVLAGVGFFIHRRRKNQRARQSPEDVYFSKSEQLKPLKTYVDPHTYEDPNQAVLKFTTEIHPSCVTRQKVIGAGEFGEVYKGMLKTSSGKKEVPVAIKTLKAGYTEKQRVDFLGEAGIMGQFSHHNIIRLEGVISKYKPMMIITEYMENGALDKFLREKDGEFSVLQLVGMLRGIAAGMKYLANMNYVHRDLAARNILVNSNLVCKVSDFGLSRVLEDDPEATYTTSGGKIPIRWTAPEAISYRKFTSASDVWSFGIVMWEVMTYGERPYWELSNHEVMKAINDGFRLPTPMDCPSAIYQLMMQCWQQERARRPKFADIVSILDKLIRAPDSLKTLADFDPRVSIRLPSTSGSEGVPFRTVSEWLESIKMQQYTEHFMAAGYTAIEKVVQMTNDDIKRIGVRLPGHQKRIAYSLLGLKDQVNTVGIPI
Chain of MAP/microtubule affinity-regulating kinase 3 (P27448 whole entry): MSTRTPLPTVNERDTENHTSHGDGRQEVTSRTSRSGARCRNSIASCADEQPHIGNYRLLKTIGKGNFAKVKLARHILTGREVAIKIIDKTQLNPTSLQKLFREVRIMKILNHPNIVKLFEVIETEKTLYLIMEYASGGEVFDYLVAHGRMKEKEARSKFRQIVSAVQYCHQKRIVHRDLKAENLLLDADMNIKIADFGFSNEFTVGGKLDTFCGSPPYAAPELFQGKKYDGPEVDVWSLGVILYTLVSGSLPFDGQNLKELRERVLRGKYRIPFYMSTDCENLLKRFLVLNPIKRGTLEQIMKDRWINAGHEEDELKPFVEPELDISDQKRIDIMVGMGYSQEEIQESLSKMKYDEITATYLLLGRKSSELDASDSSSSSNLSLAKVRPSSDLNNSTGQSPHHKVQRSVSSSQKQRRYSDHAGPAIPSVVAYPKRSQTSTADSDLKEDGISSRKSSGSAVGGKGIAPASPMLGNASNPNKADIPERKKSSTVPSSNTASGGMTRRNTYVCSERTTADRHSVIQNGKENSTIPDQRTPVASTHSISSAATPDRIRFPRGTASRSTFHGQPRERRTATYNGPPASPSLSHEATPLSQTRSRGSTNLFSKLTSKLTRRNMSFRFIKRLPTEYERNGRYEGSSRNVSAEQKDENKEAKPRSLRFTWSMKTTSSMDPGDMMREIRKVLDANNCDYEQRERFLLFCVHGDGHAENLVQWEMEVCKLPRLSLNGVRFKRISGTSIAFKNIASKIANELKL

The Kd is a measure of binding affinity in units of concentration. On to `Cc1csc(-c2nnc(Nc3ccc(Oc4ncccc4-c4ccnc(N)n4)cc3)c3ccccc23)c1` [AMG-900], for which the Kd in [1] was 3.49 µM (active); in assay [2], > 30 µM (inactive); in assay [3], 1.9 µM (active); in assay [4], > 30 µM (inactive); in assay [5], > 30 µM (inactive); at Ephrin type-A receptor 7 it was > 30 µM (inactive). Also, the Kd at Insulin receptor was > 30 µM (inactive); on Ephrin type-A receptor 2, > 30 µM (inactive); in assay [6], > 30 µM (inactive); in assay [7], 3.02 µM (active).

As for `C=CC(=O)Nc1cc2c(Nc3ccc(F)c(Cl)c3)ncnc2cc1C#CC(C)(C)N1CCN(C)CC1` [AV-412 FREE BASE], the Kd (in assay [1]; in [2]; in [3]; in assay [4]; in assay [5]; on Ephrin type-A receptor 7) was > 30 µM (inactive) in each case. The Kd (at Insulin receptor; on Ephrin type-A receptor 2; in [6]; in assay [7]) was > 30 µM (inactive) in each case.

For the compound `COc1cc([C@@H]2c3cc4c(cc3[C@H](O)[C@H]3COC(=O)[C@@H]23)OCO4)cc(OC)c1OC` [AXL-1717], the Kd (in assay [1]; in assay [2]; in assay [3]; in assay [4]; in assay [5]; at Ephrin type-A receptor 7) was > 30 µM (inactive) throughout. For the same compound, the Kd (at Insulin receptor; at Ephrin type-A receptor 2; in assay [6]; in [7]) was > 30 µM (inactive) each time.

On to `Cn1cnc2c(F)c(Nc3ccc(Br)cc3F)c(C(=O)NOCCO)cc21` [BINIMETINIB], for which the Kd in [1] was 0.036 µM (active); in assay [2], > 30 µM (inactive); in [3] it was > 30 µM (inactive); in [4], > 30 µM (inactive); in assay [5] it was > 30 µM (inactive); on Ephrin type-A receptor 7, > 30 µM (inactive). In addition, the Kd (at Insulin receptor; at Ephrin type-A receptor 2; in [6]; in assay [7]) was > 30 µM (inactive) throughout.

In the case of `CCn1c(C(=O)N(C2CC2)C2CC2)cc2c3c(ncn3C)c(Nc3cc(C)n(C)n3)nc21` [BMS-911543], the Kd (in assay [1]; in [2]; in assay [3]; in assay [4]; in [5]; on Ephrin type-A receptor 7) was > 30 µM (inactive) each time. Besides, the Kd (at Insulin receptor; at Ephrin type-A receptor 2; in [6]; in [7]) was > 30 µM (inactive) in each case.

Take `COc1c(OCCCN2CCOCC2)ccc2c1N=C(NC(=O)c1cnc(N)nc1)N1CCN=C21` [COPANLISIB]: the Kd (in assay [1]; in assay [2]; in [3]; in assay [4]; in assay [5]; at Ephrin type-A receptor 7) was > 30 µM (inactive) throughout. Moreover, the Kd (at Insulin receptor; on Ephrin type-A receptor 2; in assay [6]; in assay [7]) was > 30 µM (inactive) in each case.

On to `COCC(=O)NC/C=C/c1ccc2ncnc(Nc3ccc(Oc4ccc(C)nc4)c(C)c3)c2c1` [CP-724714], for which the Kd (in assay [1]; in assay [2]; in assay [3]; in [4]; in assay [5]; on Ephrin type-A receptor 7) was > 30 µM (inactive) in each case. Also, the Kd (at Insulin receptor; at Ephrin type-A receptor 2; in assay [6]; in assay [7]) was > 30 µM (inactive) in each case.

The record behind these values is ChEMBL document CHEMBL3991601, “The target landscape of clinical kinase drugs” (Science, 2017).
